Reference: patent publication EP0715850A1, “Use of proline and/or derivatives as an antihepatitis agent” (RESEARCH DEVELOPMENT CORPORATION OF JAPAN, priority 1994, dated 1996)
Like-named read-outs stand apart in the source and are kept apart here.

How the values were obtained:
[1] = system: LEC rat which spontaneously develops hepatitis, cirrhosis and hepatoma; assay: death rate and jaundice of LEC rats that spontaneously develop hepatitis; format: in vivo
Excerpt: An effect of proline was investigated by using LEC rat which spontaneously develops hepatitis, cirrhosis and hepatoma.
Weanlings of LEC rats (seven weeks of age: food deprived for one week before testing) were divided into 2 groups, and copper deficiency feed and normal feed were presented to the groups, respectively. The rats of 2 groups were further divided into 3 groups: group of free drinking of proline solution (0.2M of proline in distilled water); group of oral administration of proline solution (135-150 mg of proline/day); and group of free drinking of water. Death rate of 6 groups of rats were measured. A relationship between the amount of proline solution consumed by rats and the degree of jaundice of the rats was also measured.

[2] = system: rats suffering galactosamine induced fulminant hepatitis; settings: blood sampled 36 hours after galactosamine; Pre-Pro and Post-Pro groups, proline 2.0 g/kg oral
Method: The effect of administration of proline on transamylase activity in blood of rats suffering galactosamine induced fulminant hepatitis was investigated.
Blood was sampled from each of the four groups of rats (GalN, Control, Pre-Pro, and Post-Pro) of Example 1, upon the lapse of 36 hours after administration of galactosamine, and activity of transamylase in blood (glutamic-oxaloacetic acid transamylase: GOT; glutamic-pyruvic acid transamylase: GPT) was measured in accordance with the conventional method.

[3] = system: rats suffering galactosamine induced fulminant hepatitis; settings: ten days after galactosamine
Method: Because of the similarity of pathological findings to those of human hepatitis and a large number of patients, experiments were carried out on the effect of administration of proline on the survival rate of rats suffering galactosamine induced fulminant hepatitis commonly used as a hepatitis model.
Fisher strain rats (male; eight weeks of age; body weight: 160 to 190 g) were divided into four groups each comprising nine rats. Rats of three groups were administered with 30% galactosamine hydrochloride-saline through intraperitoneal administration (1.4 g/kg body weight) to form fulminant hepatitis models (GalN), and only saline was administered to the remaining group to form a control group.
For 12 hours before and after administration of galactosamine, the rats were fasted, and from 12 hours prior to administration of galactosamine through six hours thereafter, the rats were caused to freely ingest 10% glucose aqueous solution.

Structure (SMILES): O=C(O)[C@@H]1CCCN1 [Proline, proline]
- degree of jaundice ([1]; LEC rats ingesting proline solution, Fig. 3): diminished the jaundice
- Death rate ([1]; copper deficiency feed, free drinking of proline solution (0.2M in distilled water)): 0%
- Death rate ([1]; copper deficiency feed, oral administration of proline solution (135-150 mg of proline/day)): 0%
- Death rate ([1]; normal feed, free drinking of proline solution (0.2M in distilled water)): 85%
- Death rate ([1]; normal feed, oral administration of proline solution (135-150 mg of proline/day)): 57%
- increase in the concentration of GOT in blood [2]: largely inhibited
- increase in the concentration of GPT in blood [2]: largely inhibited
- survival rate ([3]; post-administration (Post-Pro) group: proline 2.0 g/kg oral at 6, 12 and 24 hours after galactosamine (1.4 g/kg i.p.), 7/9): 78%
- survival rate ([3]; pre-administration (Pre-Pro) group: proline 2.0 g/kg oral one hour prior to and 12 and 24 hours after galactosamine (1.4 g/kg i.p.), 9/9): 100%
